Data set [1] deals with R6/2 mice (mouse model of Huntington's). Put plainly: Brain weight and activity studies in R6/2 mice (open field, clasping, rotarod). The class given is in vivo. The conditions noted are these: 13 mg/kg SC daily. On the procedure: The R6/2 mice were injected with a daily dose of 13 mg/kg of P1 subcutaneously in 4.38 mM L-His, 140 mM NaCl, 0.2% Tween-20 and 1500 IU hyaluronidase (pH 6.15) between 8 weeks to 12 weeks of age. At 12 weeks of age, mice were sacrificed and their brains removed and both hippocampus—cortex and striatal tissue was isolated and lysed in RIPA lysis buffer containing containing cOmplete and phosSTOP.
Prior to treatment (8 weeks of age), the R6/2 mice were weighed and assessed for clasping and rotarod behavior before randomization to 4 cages of n=6 each (two cages pr treatment group). The experimenter remained blinded throughout the studies and data analysis. Motor coordination was measured by hind-limb clasping and rotarod between week 7-12.
Clasping: Mice were once weekly assessed for clasping behavior. Mice were placed on the top grid of a cage and then held by the tail and lifted over the top of the homecage for 10 successive trials of 3 seconds with 3 second rest intervals
Rotarod: Accelerating test—cylinder accelerates from 4 to 40 RPM in 5 minutes with linear speed progression. During the first week of training, mice undergo 3 trials per day for 3 consecutive days. During training sessions, mice receive “second changes” when falling from the rotarod. The following weeks, mice are tested on only one day for 3 consecutive trials. The mean latency to fall is used for data analysis.
At 11 weeks of age, mice were subjected to an open field consisting of a 40×40 cm box with transparent Plexiglas walls of 50 cm height. Their behaviour was recorded using an automated tracking software and camera (Anymaze, Havard apparatus). Distance travelled and number of rears were recorded over a 20 min. period.
Brain weight: At 12 weeks of age, mice were sacrificed and the entire brain was carefully extracted and weighed using a fine-scale weigh.
A general note: In the rotarod test animals must keep their balance on a rotating rod.

Data set [2] deals with GRN+/- hippocampal neurons. Kind of data set: Lysosomal acidification in GRN+/- hippocampal neurons, LysoSensor DND-189. Type of data set: cell-based, mouse. The conditions noted are these: 1 uM, 4 hours. On the procedure: Primary hippocampal neurons from GRN+/− mice were seeded in an 8-well ibidi chamber pre-coated with Poly-I and laminin. 75,000 neurons were seeded pr. well. After 5 days in vitro the neurons were stimulated for 4, 8 or 24 hours with peptide P1 at 1 uM in neurobasal A with B27. After stimulation, the medium was changed to pre-warmed (37° C.) neurobasal A containing 1 uM of LysoSensor probe DND-189 (an acidotropic probes that accumulates in acidic organelles as the result of protonation) and incubated for 30 min. at 37° C. in a 5% C02 atmosphere. Hereafter, the media was changed to pre-warmed FluoroBrite Medium and the neurons were imaged in Olympus microscopy system. Pictures were taken of the lysosomes and processed using the ScanR imaging software to give fluorescence (intensity) of each lysosomal vesicle. The summed total intensity of all lysosomes was calculated and divided by the total number of neurons imaged yielding the total intensity of lysosomes per neuron. Student's t-test was used for statistical analysis.

A short description of data set [3]: Plasma stability, mouse plasma. The class given is in vitro ADME. To be noted: 2 μM, 37° C. On the procedure:
Mouse or human plasma were incubated with 2 μM of P1 (SEQ ID NO: 1) or propantheline bromide (positive control for degradation) and left at 37° C. At each time point, stop solution was added to precipitate the solution and after mixing and centrifugation, supernatant was used for LCMS analysis.

The next data set has as its system cortical neurons. Kind of data set: Survival of wild-type cortical neurons, MTT assay. The class given is cell-based, mouse. On the procedure:
Cortical neurons were isolated from p0 wild-type mice and seeded in a density of 50.000 in a 96-well plate pre-coated with poly-L and laminin and incubated at 37° C. in a 5% C02 atmosphere. At 7 days in vitro (DIV7) the neurons were treated by changing half the media with neurobasal A with B27 containing the peptides (P2, P4 or P6) to give a finale concentration of 1 uM and further incubated. The cortical neurons were treated in a likewise manner on DIV9 and DIV11. At DIV12 half the media was removed and 3-(4,5-dimethylthiazole-2-yl)-2,5-diphenyltetrazolium bromide (MTT) was added to the media to give a finale concentration of 0.5 mg/mL. MTT is reduced by mitochondrial enzymes in active cells to an insoluble product called formazan, which can be detected by colorimetry. Thus, the colour generated reflects activity and viable cells in the culture. The neurons were incubated for 4 hours with MTT and thereafter lysed in a 50% EtOH and 50% DMSO solution. To assure proper mixing of formazan, the plate was left to shake for 30 minutes before being measured at 570 nm and 650 nm. Student's t-test was used for statistical analysis.
Further, a drug-dose response on survival for peptide P1 was assessed in a similar manner.

A short description of data set [4]: Liver microsome stability, mouse. Type of data set: in vitro ADME. The conditions noted are these: 2 μM, up to 60 minutes. How it is done: Reactions were stopped at timepoints between 0-60 min. and samples analysed by LCMS.
(In general: Microsomes from liver hold many membrane-bound enzymes, among them those of drug oxidation.)

The test system of data set [5] is GRN+/- hippocampal neurons. Put plainly: Dendritic branching of GRN+/- hippocampal neurons. To be noted: 1 uM, 72 hours. The class given is cell-based, mouse. On the procedure:
To further validate the therapeutic potential of peptide P1 in frontotemporal dementia, its neurotrophic activity in GRN heterozygous hippocampal neurons isolated from p0 mice was investigated. Heterozygous loss of function mutations in the progranulin gene, GRN, cause frontotemporal dementia^68. To assess this, we measured the dendritic branching of GRN+/− hippocampal neurons in vitro following treatment. 10000 neurons were seeded per coverslip. After 24 hours the medium was changed to medium containing 1 uM of peptide P1. Hereafter, the cells were incubated at 37° C. for 72 hours before being fixed in 4% PFA for 20 minutes at room temperature. The neurons were subsequently stained against MAP2 to determine cell morphology. Images were taken using a confocal microscope and the neurite branches were analysed using Zen Image Processing (Carl Zeiss). The total number of branches were calculated per neuron. Student's t-test was used for statistical analysis.

Data set [6] relates to AMPK (T172) and CREB (S133). Put plainly: P1 activation of AMPK and CREB with or without CaMKK2-inhibitor STO-609 in cortical neurons. The class given is cell-based, mouse. How it is done:
Mouse cortical neurons were isolated from p0 wild-type mice and seeded in a density of 250,000 per well in a 12-well tray. After 7 days in vitro the neurons were either pre-treated with STO-609 (5 uM) for 1 hour or with DMSO (control). After 1 hour, the neurons were stimulated with P1 or a scrambled peptide (Scr), with or without STO-609, in neurobasal A media and incubated at 37° C. and 5% CO2 for 20 minutes. Hereafter, the neurons were lysed in lysis buffer containing DTT and cOmplete cocktail protease inhibitor. Phosphorylation of AMPK (T172) and CREB (S133) was validated by western blotting and normalized to beta-actin.

Where [7] appears, read: 11 weeks of age, 20 min, vs vehicle.

Where a SMILES comes first, the peptide text is derived from it.

Turning to `CSCC[C@@H]1NC(=O)[C@H](C(C)C)NC(=O)[C@H](CC(=O)O)NC(=O)[C@H](CCC(=O)O)NC(=O)[C@H](CCC(=O)O)NC(=O)[C@H](Cc2c[nH]cn2)NC(=O)[C@H](CCC(=O)O)NC(=O)[C@H](C(C)C)NC(=O)[C@@H]2CCCN2C(=O)[C@H](CCC(=O)O)NC(=O)[C@H]([C@@H](C)O)NC1=O` [Peptide P1, [MTEPVEHEEDV]] (cyclo(MTEPVEHEEDV)), in data set [1] (8 to 12 weeks of age, at 12 weeks), the “average increase of brain weight” value is reported as 14 mg. Also, in data set [1] (week 8-12), the “motor function, clasping” value is given as “tendency to improve motor functions” and the “motor function, rotarod” value was “tendency to improve motor functions”. For the same compound, in data set [1] (setting [7]), the “distance travelled, open field” value was “significantly higher” and the “rearing frequency, open field” value was “significantly higher”. Further, in data set [2], the “lysosomal intensity (lysosomal acidification)” value is “lysosomal intensity was increased”. Also, the half-life in data set [3] was over 4.82 h. Further, the “survival in drug-dose response study” value with cortical neurons (BDNF as positive control) is recorded as “increases survival”. The compound further yielded an EC50 in the data set on cortical neurons (drug-dose response, Example 5) of 2700 nM. For the same compound, in data set [4], the “clearance and stability in liver microsomes” value is “low clearance and high stability”. The “number of branches per neuron” value in data set [5] is reported as “increased branching”. For the same compound, in data set [6] (1 uM P1, without STO-609), the “phosphorylation of AMPK (T172)” value is recorded as “significantly increased phosphorylation” and the “phosphorylation of CREB (S133)” value is on record as “significantly increased phosphorylation”. The “P1-induced activation of AMPK” value in data set [6] (pre-treated with 5 uM STO-609 for 1 hour) is given as “loss of P1-induced activation of AMPK”. In data set [6] (pre-treated with 5 uM STO-609 for 1 hour, compared to P1-treated cells only), the “CREB activation by P1” value is listed as “lowered but not totally abolished”.

A word on the half-life: it is how long it takes for the measured level to halve. A higher half-life goes with slow loss. The term EC50 denotes the concentration needed to bring the measured effect to its halfway point. High values mean a need for much substance, low ones an effect from little substance.
